In patent US20240368153A1, “Aminopyridine-based MTA-Cooperative PRMT5 Inhibitors” (Mirati Therapeutics, Inc., priority 2021, published 2024):
Read-outs that look alike come from different tables or passages of the source.

Experiments:
[1] = target: recombinant human dual expressed Avi PRMT5/His-MEP50 protein (Homo sapiens (Human), UniProt O14744); test: HTRF binding assay in presence of MTA; conditions: 30 μM MTA
Method: The PRMT5 binding activity of compounds of the present invention was determined using an HTRF binding assay or SPR assay.
A recombinant human dual expressed Avi PRMT5/His-MEP50) protein (corresponding to amino acids for PRMT5 2-637, and 2-342 for MEP50 expressed in baculovirus) was incubated with target fragments in final buffer (25 mM ADA pH 7.2, 30 μM MTA, 1 mM TCEP, 50 mM NaCl, 0.002% Tween, 5 nM proprietary Tracer binding compound prepared in-house), overnight at 2-8° C. After overnight incubation the binding is monitored after the addition of 0.5 nM Anti-His-Tb (Cisbio) after 1 hr incubation at RT (˜20-24 hrs total binding time). The HTRF signal was measured using a Clariostar reader (BMG) excitation filter (Ex Tr), dichroic filter (LP TP) and emission filters (F 665-10 and F 620-10) manufacturer's instructions. The HTRF ratio was calculated using the formula: [emission 665/emission 620]*10000.

PRMT5/MEP50 complex = PRMT5/MEP50 complex (Homo sapiens (Human), UniProt O14744); test: PRMT5:MEP50 FlashPlate Assay; format: biochemical
Method: The PRMT5 inhibitory activity of compounds of the present invention was determined using a PRMT5:MEP50 FlashPlate Assay (Reaction Biology Corporation).
The assay uses purified human, PRMT5 enzyme to convert S-adenosyl-L-[methyl-^3H]methionine plus histone H4 L-arginine to S-adenosyl-L-homocysteine plus histone H4 [methyl-^3H]-L-arginine. The assay was carried out using Streptavidin-coated FlashPlates (Perkin Elmer), which contained a scintillant embedded in the plastic of the plate. The histone H4 peptide substrate was conjugated with biotin, which binds to the streptavidin-coated well of the plate, placing the H4 peptide in close proximity to the side well and the scintillant. The transfer of the tritiated methyl group from S-adenosyl-L-[methyl-^3H]methionine to the bound histone H4 peptide generated a radiolabeled histone H4, which was quantitated by measuring in a scintillation counter to determine the activity of PRMT5 enzyme in the presence and absence of compound. […] Briefly, compounds of the present invention were solubilized in 100% DMSO at a highest concentration of 10 mM. For IC, determinations, the initial starting concentration for the serial dilutions of each compound was 50 μM. Control samples lacking compound, PRMT5/MEP50 complex or various reaction components also were prepared and processed in parallel with compound test samples. SAH was used as a positive control for assay validation. To measure PRMT5 inhibitory activity, 3 nM PRMT5/MEP50 complex (Reaction Biology Corporation) was preincubated with test compound in assay buffer containing 40 nM histone H4 peptide (amino acids 1-15)-Biotin conjugate for 20 min at room temperature. The enzymatic reaction was initiated by adding 1 μM tritiated S-adenosyl methionine (final concentration) and the reaction is allowed to proceed for 20 min. The reaction was stopped and the amount of bound, tritiated H4 peptide in each sample was determined using a scintillation counter. The IC50 value for each compound was calculated from each 10-point dose-response curve for samples plus and minus MTA using GraphPad Prism software and the results for exemplary compounds of Formula (I) is shown in Table 9a.

[2] = target: PRMT5•SAM (biotinylated PRMT5-MEP50) (Homo sapiens (Human), UniProt O14744); test: SPR binding assay, SAM running buffer; conditions: 20 μM SAM running buffer
Method: (§1) SPR screening was performed in MTA running buffer (25 mM Bicine pH 7.6, 100 mM NaCl, 1 mM TCEP, 20 μM MTA, 0.05% Tween-20 and 2% DMSO). The biotinylated PRMT5-MEP50 surface was equilibrated with MTA running buffer for 12 hours prior to the start. […] Subsequently, compound titration was repeated in SAM-running buffer (25 mM Bicine pH 7.6, 100 mM NaCl, 1 mM TCEP, 20 μM SAM, 0.05% Tween-20, and 2% DMSO). […] After double referencing, the steady-state response was extracted for each fragment concentration and was fit to the Langmuir isotherm equation to determine the equilibrium dissociation constant (KD).

[3] = target: PRMT5•MTA (biotinylated PRMT5-MEP50) (Homo sapiens (Human), UniProt O14744); test: SPR binding assay, MTA running buffer; conditions: 20 μM MTA running buffer
Method: as §1

[4] = histone H4 peptide, absence of MTA, read-out: IC50
[5] = read-out: IC50 + 2 μM MTA, histone H4 peptide, presence of 2 μM MTA

Sequence of PRMT5/MEP50 complex (O14744 whole entry): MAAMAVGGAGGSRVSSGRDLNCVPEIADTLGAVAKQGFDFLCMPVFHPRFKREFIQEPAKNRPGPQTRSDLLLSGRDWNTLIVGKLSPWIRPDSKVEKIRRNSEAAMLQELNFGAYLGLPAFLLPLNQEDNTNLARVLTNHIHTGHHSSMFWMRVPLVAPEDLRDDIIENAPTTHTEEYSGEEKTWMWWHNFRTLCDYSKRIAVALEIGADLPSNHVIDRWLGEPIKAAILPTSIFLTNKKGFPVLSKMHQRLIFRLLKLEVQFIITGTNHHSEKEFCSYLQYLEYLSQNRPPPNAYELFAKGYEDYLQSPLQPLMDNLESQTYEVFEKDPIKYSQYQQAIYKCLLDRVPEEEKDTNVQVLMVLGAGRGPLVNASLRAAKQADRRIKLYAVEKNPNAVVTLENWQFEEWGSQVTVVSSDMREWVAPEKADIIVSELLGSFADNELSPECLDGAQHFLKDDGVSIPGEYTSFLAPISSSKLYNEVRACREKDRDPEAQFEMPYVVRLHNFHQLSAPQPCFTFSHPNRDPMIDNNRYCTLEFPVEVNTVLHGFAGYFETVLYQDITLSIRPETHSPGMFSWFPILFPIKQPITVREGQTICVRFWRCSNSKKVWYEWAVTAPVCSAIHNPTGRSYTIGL
Sequence of PRMT5/MEP50 complex (Q9BQA1 whole entry partner): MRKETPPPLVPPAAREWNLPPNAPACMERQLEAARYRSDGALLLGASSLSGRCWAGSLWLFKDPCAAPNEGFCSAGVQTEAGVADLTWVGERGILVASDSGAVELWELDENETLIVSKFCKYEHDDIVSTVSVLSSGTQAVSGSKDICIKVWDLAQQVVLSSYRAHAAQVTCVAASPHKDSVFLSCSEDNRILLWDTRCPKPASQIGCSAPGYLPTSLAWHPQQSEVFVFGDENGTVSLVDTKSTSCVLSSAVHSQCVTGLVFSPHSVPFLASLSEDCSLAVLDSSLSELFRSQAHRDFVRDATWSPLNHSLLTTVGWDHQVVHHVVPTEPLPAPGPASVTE
Sequence of PRMT5•MTA (biotinylated PRMT5-MEP50) (O14744 whole entry): as the sequence (O14744 whole entry) above
Sequence of PRMT5•MTA (biotinylated PRMT5-MEP50) (Q9BQA1 whole entry partner): as the sequence (Q9BQA1 whole entry partner) above
Sequence of PRMT5•SAM (biotinylated PRMT5-MEP50) (O14744 whole entry, the tested form may be a part): as the sequence (O14744 whole entry) above
Sequence of PRMT5•SAM (biotinylated PRMT5-MEP50) (Q9BQA1 whole entry partner, the tested form may be a part): as the sequence (Q9BQA1 whole entry partner) above
Sequence of recombinant human dual expressed Avi PRMT5/His-MEP50 protein (O14744 2-637): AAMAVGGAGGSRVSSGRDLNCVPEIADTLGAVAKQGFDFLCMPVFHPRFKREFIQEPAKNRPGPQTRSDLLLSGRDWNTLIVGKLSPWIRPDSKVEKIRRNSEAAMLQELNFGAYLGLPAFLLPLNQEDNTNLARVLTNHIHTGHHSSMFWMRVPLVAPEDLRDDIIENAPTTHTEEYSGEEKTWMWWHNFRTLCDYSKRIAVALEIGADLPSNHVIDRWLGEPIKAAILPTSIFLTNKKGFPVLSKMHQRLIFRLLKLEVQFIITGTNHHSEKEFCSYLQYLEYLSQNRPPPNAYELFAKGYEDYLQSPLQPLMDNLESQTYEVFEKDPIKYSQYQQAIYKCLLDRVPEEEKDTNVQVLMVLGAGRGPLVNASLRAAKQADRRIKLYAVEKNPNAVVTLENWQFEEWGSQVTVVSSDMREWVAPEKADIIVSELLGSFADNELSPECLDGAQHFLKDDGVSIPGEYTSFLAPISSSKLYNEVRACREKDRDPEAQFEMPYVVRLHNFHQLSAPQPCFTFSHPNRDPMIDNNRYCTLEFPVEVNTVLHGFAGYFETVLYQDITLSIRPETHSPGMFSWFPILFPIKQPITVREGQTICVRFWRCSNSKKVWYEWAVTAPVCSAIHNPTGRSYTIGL
Sequence of recombinant human dual expressed Avi PRMT5/His-MEP50 protein (Q9BQA1 2-342 partner): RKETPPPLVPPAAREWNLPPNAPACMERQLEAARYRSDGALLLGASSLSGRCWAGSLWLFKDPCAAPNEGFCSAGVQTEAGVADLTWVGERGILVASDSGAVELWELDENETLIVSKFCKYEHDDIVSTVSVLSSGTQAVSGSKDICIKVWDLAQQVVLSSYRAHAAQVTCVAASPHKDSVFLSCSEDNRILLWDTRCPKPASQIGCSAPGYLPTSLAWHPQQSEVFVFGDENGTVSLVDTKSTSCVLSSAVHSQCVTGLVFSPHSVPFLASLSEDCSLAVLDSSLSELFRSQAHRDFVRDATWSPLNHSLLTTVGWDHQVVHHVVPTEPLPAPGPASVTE

SMILES | IC50 [1] [µM] | IC50 (PRMT5/MEP50 complex; [4]) [µM] | IC50 (PRMT5/MEP50 complex; [5]) [µM] | Kd [2] [µM] | Kd [3] [µM] | IC50 (PRMT5/MEP50 complex; IC50 + 2 μM MTA, histone H4 peptide, presence of 2 μM MTA) [µM]
Cc1cc(N)nc2cc(-c3cnsc3)cnc12 [Example 1-8, 7-(isothiazol-4-yl)-4-methyl-1,5-naphthyridin-2-amine] | 11.4 | > 300 | > 300 | 19.1 | 7.5 | –
Cc1cc(N)nc2cc(Cc3ccccc3F)cnc12 [Example 2-2, 7-(2-fluorobenzyl)-4-methyl-1,5-naphthyridin-2-amine] | 0.354 | – | – | 39.1 | 5.28 | –
Cc1cc(N)nc2cc(Cc3ccccc3Cl)cnc12 [Example 2-3, 7-(2-chlorobenzyl)-4-methyl-1,5-naphthyridin-2-amine] | 1.31 | > 300 | > 300 | 31.5 | 4.68 | –
Cc1cc(N)nc2cc(Cc3ccccc3C#N)cnc12 [Example 2-4, 2-((6-amino-8-methyl-1,5-naphthyridin-3-yl)methyl)benzonitrile] | 0.992 | > 300 | > 300 | 3.09 | 0.874 | –
Cc1cc(N)nc2cc(Cc3cccnc3)cnc12 [Example 2-7, 4-methyl-7-(3-pyridylmethyl)-1,5-naphthyridin-2-amine] | 0.581 | – | – | 1.22 | 0.232 | –
Cc1cc(N)nc2cc(Cc3cnn(C)c3)cnc12 [Example 2-9, 4-methyl-7-[(1-methylpyrazol-4-yl)methyl]-1,5-naphthyridin-2-amine] | 0.204 | 243 | 17.1 | 0.748 | 0.137 | –
Cc1cc(N)nc2cc(Oc3cccnc3)cnc12 [Example 3-7, 4-methyl-7-(3-pyridyloxy)-1,5-paphthyridin-2-amine] | 0.546 | 351 | 26.1 | – | 2.46 | –
Cc1cc(N)nc2ccc(-c3ccccc3F)nc12 [Example 4-7, 6-(2-fluorophenyl)-4-methyl-1,5-naphthyridin-2-amine] | 10.1 | > 300 | > 300 | 81.4 | 32 | –
Cc1cc(N)nc2cc(CNC(=O)c3ccccc3)cnc12 [Example 7-1, N-[(6-amino-8-methyl-1,5-naphthyridin-3-yl)methyl]benzamide] | 0.158 | 62.6 | 5.57 | 0.396 | 0.094 | –
Cc1cc(N)nc2cc(CNC(=O)c3ccncn3)cnc12 [Example 7-2, N-[(6-amino-8-methyl-1,5-naphthyridin-3-yl)methyl]pyrimidine-4-carboxamide] | 0.313 | > 100 | 22 | 2.22 | 0.151 | –
Cc1cc(N)nc2cc(CNC(=O)c3cc(O)ncn3)cnc12 [Example 7-3, N-[(6-amino-8-methyl-1,5-naphthyridin-3-yl)methyl]-6-hydroxy-pyrimidine-4-carboxamide] | 1.06 | > 100 | 60 | 12.5 | 0.682 | –
Cc1cc(N)nc2cc(CNC(=O)c3cc(NC4CC4)ncn3)cnc12 [Example 7-4, N-[(6-amino-8-methyl-1,5-naphthyridin-3-yl)methyl]-6-(cyclopropylamino)pyrimidine-4-carboxamide] | 0.029 | 18.2 | 1.66 | 0.081 | 0.022 | –
Cc1cc(N)nc2cc(CN3C(=O)c4ccccc4C3=O)cnc12 [Example 7-6, 2-[(6-amino-8-methyl-1,5-naphthyridin-3-yl)methyl]isoindoline-1,3-dione] | 0.021 | > 300 | 0.745 | 0.105 | 0.012 | –
Cc1cc(N)nc2cc(CNC(=O)c3ccccc3)cnc12 [Example 8-1, N-[(6-amino-8-methyl-1,5-naphthyridin-3-yl)methyl]benzamide] | 0.009 | 4.29 | 0.419 | 0.033 | 0.005 | –
Nc1nc2cc(CNC(=O)c3ccncn3)[nH]c2cc1Br [Example 8-2, N-[(5-amino-6-bromo-1H-pyrrolo[3,2-b]pyridin-2-yl)methyl]pyrimidine-4-carboxamide] | 0.013 | 5.79 | 0.362 | 0.137 | 0.009 | –
Cc1cc2[nH]ccc2nc1N [Example 9-1, 6-methyl-1H-pyrrolo[3,2-b]pyridin-5-amine] | 2.2 | 188 | 27.9 | 3.36 | 0.456 | –
Nc1nc2cc[nH]c2cc1C1CC1 [Example 9-2, 6-cyclopropyl-1H-pyrrolo[3,2-b]pyridin-5-amine] | 24.7 | 232 | 97.8 | 19.6 | 3.26 | –
Nc1nc2cc[nH]c2cc1C(F)(F)F [Example 9-3, 6-(trifluoromethyl)-1H-pyrrolo[3,2-b]pyridin-5-amine] | 20.3 | 431 | 210 | 29.2 | 11.7 | –
Nc1nc2cc(NC(=O)c3ccccc3)[nH]c2cc1Br [Example 12-1, N-(5-amino-6-bromo-1H-pyrrolo [3,2-b]pyridin-2-yl)benzamide] | 1.41 | > 100 | > 100 | 6.29 | 2.54 | –
Cc1cc2[nH]c(N3CC(=O)NC3=O)cc2nc1N [Example 13-7, 1-(5-amino-6-methyl-1H-pyrrolo[3,2-b]pyridin-2-yl)imidazolidine-2,4-dione] | 2.29 | > 300 | – | – | – | > 300
Cc1cc2c(cc(CNC(=O)c3ccccc3)n2C2CC2)nc1N [Example 15-1, N-[(5-amino-1-cyclopropyl-6-methyl-pyrrolo[3,2-b]pyridin-2-yl)methyl]benzamide] | 0.362 | > 300 | 44.9 | – | 0.066 | –
CC(=O)N1CCC(=O)n2c(cc3nc(N)c(C)cc32)C1 [Example 15-2, 11-acetyl-5-amino-4-methyl-1,6,11-triazatricyclo[7.5.0.0^2,7]tetradeca-2,4,6,8-tetraen-14-one] | 2.47 | > 300 | 57.9 | – | – | –
CC(=O)c1c(CNC(=O)c2ccccc2)[nH]c2cc(C)c(N)nc12 [Example 15-5, N-((3-acetyl-5-amino-6-methyl-1H-pyrrolo[3,2-b]pyridin-2-yl)methyl)benzamide] | ≥ 100 | – | – | 631 | 774 | –
Cc1cc2[nH]c(CNC(=O)c3ccccc3)c(C#N)c2nc1N [Example 15-6, N-((5-amino-3-cyano-6-methyl-1H-pyrrolo[3,2-b]pyridin-2-yl)methyl)benzamide] | 2.64 | > 300 | 76.7 | – | – | –
CC(=O)N(C)Cc1cc2nc(N)c(C)cc2n1C(C)=O [Example 15-8, N-((1-acetyl-5-amino-6-methyl-1H-pyrrolo[3,2-b]pyridin-2-yl)methyl)-N-methylacetamide] | 1.01 | – | – | 0.341 | 0.043 | –
